# Measurements from ChEMBL document CHEMBL1201862, “PubChem BioAssay data set” (2004).
#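 Step 1: Grow cells in 96-well plates. Step 2: Expose to compound for 48 hours at 5 concentrations. Step 3: Interpolate endpoints linearly; if unreached, use highest concentration. GI50 = concentration required for 50% inhibition of growth.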 Activity calls are given as the source filed them. No stated cut-off is given here; in the data, active = GI50 up to about 1.1 µM and inactive = higher. Where a SMILES comes first, the peptide text is derived from it. The star is where a group is joined. Cbz = O=C(OCc1ccccc1)*; Bn = c1ccc(C*)cc1
# How the values were obtained:
# Assay in all cases: NCI anticancer screen, dose series, 48 h
# DLD-1 = system: DLD-1
# HOP-18 = system: HOP-18
# LXFL 529 = system: LXFL 529
# RXF 631 = system: RXF 631
# SNB-78 = system: SNB-78
# XF498 = system: XF498
# DMS-273 = system: DMS-273
# KM-20L2 = system: KM-20L2
# MDA-N = system: MDA-N
SMILES,GI50 (DLD-1),GI50 (HOP-18),GI50 (LXFL 529),GI50 (RXF 631),GI50 (SNB-78),GI50 (XF498),GI50 (DMS-273),GI50 (KM-20L2),GI50 (MDA-N)
CCOC(=O)C(=O)Nc1ccccc1CC,> 100 µM (inactive),> 100 µM (inactive),> 100 µM (inactive),> 100 µM (inactive),> 10 µM (inactive),> 100 µM (inactive),–,–,–
CC1=C2[C@@H](c3ccccc3)C3C=CC2(C=C3C(F)(F)F)N(C(=O)NC2CCCCC2)C1=O (stereo partly specified),> 100 µM (inactive),> 100 µM (inactive),36.1 µM (inactive),39.7 µM (inactive),36.1 µM (inactive),> 100 µM (inactive),80 µM (inactive),93.1 µM (inactive),–
CC1=C(C(=O)Nc2cccc(Cl)c2)C(c2ccc([N+](=O)[O-])cc2)C(C(=O)Nc2cccc(Cl)c2)=C(C)N1,21.8 µM (inactive),16.5 µM (inactive),23.5 µM (inactive),19.8 µM (inactive),36.1 µM (inactive),–,–,20.2 µM (inactive),–
OCc1ccccc1C1CSCSC1,> 100 µM (inactive),–,> 100 µM (inactive),–,> 100 µM (inactive),> 100 µM (inactive),> 100 µM (inactive),–,–
COc1ccc(Nc2nc3ccccc3nc2-c2cccs2)cc1,> 100 µM (inactive),> 100 µM (inactive),54.5 µM (inactive),–,39.5 µM (inactive),78.2 µM (inactive),> 100 µM (inactive),60 µM (inactive),–
CC(=O)N1OC(C)CC1Nc1ccc(Br)cc1 (stereo unspecified),–,–,–,–,–,–,–,–,0.252 µM (active)
CC(C(=O)COCc1ccccc1)P1(=O)OC(C)(C)CN1C(C)(C)C (stereo unspecified),–,–,–,–,–,–,–,–,> 100 µM (inactive)
O=C(Cc1ccccc1)NN1C(=O)/C(=C\c2ccc(O)cc2)S/C1=N\c1ccccc1,–,–,–,–,–,–,–,–,> 100 µM (inactive)
COc1ccc(N2C(=O)c3c4c(c5c([nH]c6ncccc65)c3C2=O)CCC(C(C)(C)C)C4)cc1 (stereo unspecified),–,–,–,–,–,–,–,–,> 100 µM (inactive)
CC1(c2nc3ccccc3[nH]2)CCC(CO)C(C)(C)O1 (stereo unspecified),–,–,–,–,–,–,–,–,> 100 µM (inactive)
CC(C)CCNC(=O)c1ccc(CNC(=O)/C=C/c2ccc(OCc3ccccc3)cc2)cc1,–,–,–,–,–,–,–,–,> 100 µM (inactive)
N#CCC(=O)N/N=C1/C(=O)N(c2ccc(Cl)cc2)C(=O)C(=O)C1c1nc2ccccc2s1 (stereo unspecified),> 100 µM (inactive),–,> 100 µM (inactive),–,> 100 µM (inactive),> 100 µM (inactive),> 100 µM (inactive),> 100 µM (inactive),–
CN1CCc2c(sc3nc(S)nc(S)c23)C1,–,–,–,–,–,–,–,–,> 100 µM (inactive)
Cn1cc(C(=O)c2ccccc2)ccc1=O,> 100 µM (inactive),–,> 100 µM (inactive),–,> 100 µM (inactive),> 100 µM (inactive),> 100 µM (inactive),> 100 µM (inactive),–
COc1cc(C2c3cc(OC)c(OC)c(O)c3C(=O)C3CCC(=O)N32)cc(OC)c1OC (stereo unspecified),–,–,–,–,–,–,–,–,18.2 µM (inactive)
CCCCN(CC)c1nc(C)nc2c1c(C)c(C)n2-c1c(C)cc(C)cc1C [ANTALARMIN],–,–,–,–,–,–,–,–,20.1 µM (inactive)
C/C=C/c1cc2c(c(=O)o1)C(=O)[C@@H](O)[C@H](C)O2,6.28 µM (inactive),17.5 µM (inactive),–,–,18.8 µM (inactive),–,16 µM (inactive),16.1 µM (inactive),–
CC(C)(C)c1cc(C(=O)/C=C/c2ccc(C(=O)O)cc2)cc(C(C)(C)C)c1,–,–,–,–,–,–,–,–,2.32 µM (inactive)
O=C(/C(=C/c1ccc(O)cc1)c1ccccc1)c1ccccc1,15.9 µM (inactive),18.8 µM (inactive),16.4 µM (inactive),15.3 µM (inactive),24 µM (inactive),–,–,–,–
COc1cc(OC)c2nc(C)c3c(c2c1)OCC3,–,–,–,–,–,–,–,–,> 100 µM (inactive)

SMILES,GI50 (DLD-1),GI50 (HOP-18),GI50 (LXFL 529),GI50 (RXF 631),GI50 (SNB-78),GI50 (XF498),GI50 (DMS-273),GI50 (KM-20L2),GI50 (MDA-N)
Cc1ccc(S(=O)(=O)NCCSCCNS(=O)(=O)c2ccc(C)cc2)cc1,–,–,–,–,–,–,–,–,> 100 µM (inactive)
CC1(C)C[C@H]2C=C(C=O)[C@]34C[C@]3(C(=O)OC4O)[C@H]2C1 (stereo partly specified),–,–,–,–,–,–,–,–,1.37 µM (inactive)
CCCCCCCCCC/C=C/C=O,> 100 µM (inactive),> 100 µM (inactive),> 100 µM (inactive),–,> 100 µM (inactive),> 100 µM (inactive),> 100 µM (inactive),> 100 µM (inactive),–
C1CCC(OCc2nnn3c2CCC3)OC1 (stereo unspecified),> 100 µM (inactive),< 0.01 µM (active),> 100 µM (inactive),–,> 100 µM (inactive),> 100 µM (inactive),–,> 100 µM (inactive),–
CCOC(=O)C1(Cc2ccc3ccccc3c2)CCCCC(=O)N1 (stereo unspecified),25.6 µM (inactive),> 100 µM (inactive),38 µM (inactive),–,52.7 µM (inactive),30.4 µM (inactive),13.5 µM (inactive),30.5 µM (inactive),–
COCCOc1nc(-c2ccccc2)nc2ccccc12,–,–,–,–,–,–,–,–,32.5 µM (inactive)
Cc1ccc(C2NC(=O)c3ccccc3N2)s1 (stereo unspecified),5.02 µM (inactive),–,7.64 µM (inactive),–,33.2 µM (inactive),3.21 µM (inactive),4.25 µM (inactive),4.55 µM (inactive),–
O=P(O)(O)CN1CCN(CP(=O)(O)O)CCN(CP(=O)(O)O)CCN(CP(=O)(O)O)CC1,–,–,–,–,–,–,–,–,79.4 µM (inactive)
Nc1c(/N=N/c2ccc(-c3ccc(/N=N/c4c(O)ccc5cc(S(=O)(=O)O)cc(S(=O)(=O)O)c45)cc3)cc2)c(S(=O)(=O)O)cc2cc(S(=O)(=O)O)c(/N=N/c3ccccc3)c(O)c12,> 100 µM (inactive),> 100 µM (inactive),–,–,> 84.3 µM (inactive),> 67.6 µM (inactive),> 86.9 µM (inactive),–,–
COC(=O)C(Cc1ccc(O)cc1)NC(=O)C(COCc1ccccc1)NC(=O)OCc1ccccc1 (stereo unspecified) (Cbz-Ser(Bn)-Tyr-OMe; configuration not given here),–,–,–,–,–,–,–,–,17.6 µM (inactive)
Nc1c2c(=O)[nH]c(=O)c2c(N)c2c(=O)c3ccccc3c(=O)c12,–,–,–,–,–,–,–,–,0.212 µM (active)
CC1=C(C(=O)Nc2ccccc2)C(c2ccc3c(c2)OCO3)C(C(=O)Nc2ccccc2)=C(C)N1,36.8 µM (inactive),41.5 µM (inactive),20 µM (inactive),28.7 µM (inactive),–,24.2 µM (inactive),26.7 µM (inactive),> 10 µM (inactive),–
Cn1c(=O)c2c(nc(Cc3ccccc3)n2CC(=O)O)n(C)c1=O,–,–,–,–,–,–,–,–,> 100 µM (inactive)
O=C(O)CN1C(=O)OC(c2ccccc2)C1=O (stereo unspecified),–,–,–,–,–,–,–,–,> 100 µM (inactive)
C=CC[N+](CCO)(CCO)CCCCCCCCCCCCCCCCCC,5.93 µM (inactive),8.34 µM (inactive),–,–,3.12 µM (inactive),–,2.26 µM (inactive),3.66 µM (inactive),–
COc1ccc2cc(/C=N\NC(=O)Nc3cccc4ccccc34)ccc2c1,–,–,–,–,–,–,–,–,42 µM (inactive)
CC(C)OP(=O)(OC(C)C)c1ccc2c(c1)OCCOCCOCCOCCO2,–,–,–,–,–,–,–,–,> 100 µM (inactive)
Cc1ccc(-c2c(C#N)c(N)nc3c2CCS(=O)(=O)c2ccccc2-3)cc1,–,–,–,–,–,–,–,–,> 100 µM (inactive)
COc1cc2oc(-c3ccc(O)cc3)cc(=O)c2c(O)c1C1OC(CO)C(O)C(O)C1O (stereo unspecified),> 100 µM (inactive),> 100 µM (inactive),> 100 µM (inactive),–,> 100 µM (inactive),> 100 µM (inactive),62.4 µM (inactive),> 100 µM (inactive),–
